The record followed here is patent US6335451B1, “Five-membered heterocycles having biphenylsulfonyl substitution, with sulfonylcyanamide side chain, compositions containing them, and methods of using them” (Hoechst Aktiengesellschaft, priority 1997, dated 2002).

Data set [1] relates to Na+-dependent Cl−/HCO3− exchanger (NCBE). Briefly: Inhibition of the Na+-dependent Cl−/HCO3− exchanger (NCBE) in human endothelial cells (pHi recovery, BCECF fluorescence, FLIPR). Type of data set: cell-based. The following applies: inhibitor concentration of 10 μM; human endothelial cells (ECV-304); relative to 100% and 0% pHi recovery controls, 50 μM HOE 642 present. As to the method:
Inhibition of the Na^+-dependent Cl^−/HCO3^− exchanger (NCBE) in human endothelial cells
Human endothelial cells (ECV-304) were detached from culture bottles with the aid of trypsin/EDTA buffer (0.05/0.02% in phosphate buffer) and, after centrifugation (100 g, 5 min), taken up in a buffered salt solution (mmol/l: 115 NaCl, 20 NH4Cl, 5 KCl, 1 CaCl2, 1 MgSO4, 20 N-(2-hydroxyethyl)piperazine-N′-2-ethanesulfonic acid (HEPES), 5 glucose and 1 g/l of bovine serum albumin; pH 7.4). This cell suspension was incubated at 37° C. for 20 min with 5 μM BCECF-acetoxymethyl ester. The cells were then washed and resuspended in a sodium- and bicarbonate-free buffer solution (mmol/l: 5 HEPES, 133.8 choline chloride, 4.7 KCl, 1.25 MgCl2, 0.97 K2HPO4, 0.23 KH2PO4, 5 glucose; pH 7.4).
For subsequent fluorescence measurement in an FLIPR (Fluorescent Imaging Plate Reader) 100 μl of this cell suspension having 20,000 cells in each case were pipetted per well into a 96-well microtiter plate and this microtiter plate was centrifuged (100 g, 5 min).
In the FLIPR, 100 μl of buffer solution in each case were then removed from a further pretreated microtiter plate and pipetted into each of the 96 wells of the measurement plate. A bicarbonate- and sodium-containing buffer solution (mmol/l: 5 HEPES, 93.8 NaCl, 40 NaHCO3, 4.7 KCl, 1.25 CaCl2, 1.25 MgCl2, 0.97 Na2HPO4, 0.23 NaH2PO4, 5 glucose; pH 7.4) which contained 50 μM HOE 642 was used for a 100% control, i.e. a recovery of the intracellular pH (pHi) via the NCBE. For a 0% control, i.e. no pHi recovery at all, the bicarbonate-free, sodium-containing buffer solution (mmol/l: 5 HEPES, 133.8 NaCl, 4.7 KCl, 1.25 CaCl2, 1.25 MgCl2, 0.97 Na2HPO4, 0.23 NaH2PO4, 5 glucose; pH 7.4) was employed, to which 50 μM HOE 642 were likewise added. The compounds according to the invention were added to the sodium- and bicarbonate-containing solution in various concentrations.
After addition of the buffer solutions to the dye-loaded, acidified cells in the measurement plate, the rise in the fluorescence intensity which corresponded to a rise in the pHi in each well of the microtiter plate was determined. The kinetics were in this case recorded at 35° C. for a period of 2 minutes.
The increase in the fluorescence intensities for different concentrations of the compounds according to the invention was related to the two controls and from this inhibitory action of the substances was determined.
Residual Activity of the NCBE at an Inhibitor Concentration of 10 μM

One may read the melting point as the temperature, or range, at which the solid turns liquid.

Regarding `CCCCc1nc(SC)c(C(=O)OCC)n1Cc1cccc(-c2cccc(S(=O)(=O)NC#N)c2)c1` [Example 5, Ethyl 2-butyl-5-methylsulfanyl-3-(3′-cyanoaminosulfonyl-biphenyl-3-ylmethyl)-3H-imidazole-4-carboxylate], the melting point is 112 °C (dec.). The “Residual activity in % (residual activity of the NCBE)” value in data set [1] came out at 43.2%.
The matching figures for `CCCCc1nc(SC)c(C(=O)OC(C)C)n1Cc1ccc(-c2ccccc2S(=O)(=O)NC#N)cc1` [Example 20, Isopropyl 2-butyl-5-methylsulfanyl-3-(2′-cyanoaminosulfonylbiphenyl-4-ylmethyl)-3H-imidazole-4-carboxylate]: 113 °C (dec.) and 19.5%.
The matching figures for `CCCCc1nc(SC)c(C(=O)OCC)n1Cc1ccccc1-c1ccccc1S(=O)(=O)NC#N` [Example 7, Ethyl 2-butyl-5-methylsulfanyl-3-(2′-cyanoaminosulfonyl-biphenyl-2-ylmethyl)-3H-imidazole-4-carboxylate]: 105 °C (dec.) and 72.1%.
